According to patent US11365196B2, “FGFR inhibitor and application thereof” (Betta Pharmaceuticals Co., Ltd., priority 2017, dated 2022):
Like-named read-outs stand apart in the source and are kept apart here. Blank lines part the entries; values can stand above or below the compound they belong to.

Columns and labels:
SNU-16 cells = assay: Cell proliferation assay on SNU-16, CellTiter Glo (Table 8); type: cell-based, human; conditions: class symbols, read-out: IC50(nM) value of compounds on SNU-16 cells
Excerpt: (§1) Test method: adding the appropriate volume of whole medium and the cells was suspended.

FGFR3 = FGFR3 (Homo sapiens (Human), UniProt P22607); assay: Kinase assay Method 1, mobility shift assay; type: biochemical; conditions: ATP at Km, read-out: IC50(nM) value of compounds FGFR3
Sequence of FGFR3 (P22607 23-806): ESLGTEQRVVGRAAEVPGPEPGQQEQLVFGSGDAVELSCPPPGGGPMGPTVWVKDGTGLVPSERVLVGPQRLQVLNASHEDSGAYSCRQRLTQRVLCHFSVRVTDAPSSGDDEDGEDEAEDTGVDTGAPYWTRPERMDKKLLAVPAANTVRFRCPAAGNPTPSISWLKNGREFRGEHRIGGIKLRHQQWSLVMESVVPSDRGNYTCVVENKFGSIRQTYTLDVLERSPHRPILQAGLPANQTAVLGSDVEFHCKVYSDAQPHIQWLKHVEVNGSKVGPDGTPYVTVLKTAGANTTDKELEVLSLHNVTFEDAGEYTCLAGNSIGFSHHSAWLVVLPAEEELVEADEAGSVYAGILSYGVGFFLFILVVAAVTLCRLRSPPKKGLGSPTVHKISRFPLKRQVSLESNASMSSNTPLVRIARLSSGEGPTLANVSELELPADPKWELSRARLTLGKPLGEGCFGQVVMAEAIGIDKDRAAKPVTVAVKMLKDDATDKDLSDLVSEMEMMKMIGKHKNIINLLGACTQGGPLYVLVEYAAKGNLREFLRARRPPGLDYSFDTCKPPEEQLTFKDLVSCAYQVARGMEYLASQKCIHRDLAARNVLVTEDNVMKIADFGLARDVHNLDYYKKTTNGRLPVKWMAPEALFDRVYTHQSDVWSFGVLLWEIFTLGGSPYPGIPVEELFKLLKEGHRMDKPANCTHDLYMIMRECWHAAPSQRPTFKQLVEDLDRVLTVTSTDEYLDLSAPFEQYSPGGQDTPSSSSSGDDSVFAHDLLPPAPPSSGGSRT

FGFR2 = FGFR2 (Homo sapiens (Human), UniProt P21802); assay: Kinase assay Method 1, mobility shift assay; type: biochemical; conditions: ATP at Km, read-out: IC50(nM) value of compounds FGFR2
Sequence of FGFR2 (P21802 22-821): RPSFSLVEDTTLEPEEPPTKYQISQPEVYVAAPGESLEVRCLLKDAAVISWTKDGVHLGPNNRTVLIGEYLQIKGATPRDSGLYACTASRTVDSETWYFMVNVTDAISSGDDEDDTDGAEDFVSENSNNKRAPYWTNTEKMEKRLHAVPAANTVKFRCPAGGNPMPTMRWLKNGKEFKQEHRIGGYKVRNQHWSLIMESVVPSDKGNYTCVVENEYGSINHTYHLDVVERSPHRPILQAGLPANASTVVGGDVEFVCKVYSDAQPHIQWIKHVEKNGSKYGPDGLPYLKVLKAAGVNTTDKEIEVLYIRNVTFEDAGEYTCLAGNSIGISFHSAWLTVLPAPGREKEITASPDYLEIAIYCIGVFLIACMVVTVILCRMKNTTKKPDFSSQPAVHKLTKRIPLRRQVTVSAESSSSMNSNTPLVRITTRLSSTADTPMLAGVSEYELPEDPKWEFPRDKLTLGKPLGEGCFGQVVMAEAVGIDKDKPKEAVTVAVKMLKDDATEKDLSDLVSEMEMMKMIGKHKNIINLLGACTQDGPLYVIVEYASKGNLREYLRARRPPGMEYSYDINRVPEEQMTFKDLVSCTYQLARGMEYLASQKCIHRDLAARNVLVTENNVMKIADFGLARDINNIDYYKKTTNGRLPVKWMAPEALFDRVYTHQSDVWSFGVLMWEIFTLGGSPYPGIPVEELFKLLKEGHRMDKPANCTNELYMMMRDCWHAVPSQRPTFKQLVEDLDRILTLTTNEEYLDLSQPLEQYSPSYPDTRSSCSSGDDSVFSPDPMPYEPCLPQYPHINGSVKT

NCI-H1581 cells = assay: Cell proliferation assay on NCI-H1581 (Table 7); type: cell-based, human
Excerpt: as §1

[1] = tested on: RT4 (human bladder cancer cell); assay: Cell proliferation assay, CellTiter Glo (Table 9); type: cell-based; conditions: 96 hrs
Procedure: (§2) Test method: 100 μl of the cell suspension was added to a 96-well plate and placed in a CO2 incubator overnight. Test compounds were dissolved in DMSO and subjected to a 3-fold gradient dilution for a total of 10 concentrations. The test compound or DMSO was transferred to the corresponding cell wells respectively and was incubated for 96 hrs in 5% CO2 at 37° C. 100 μl of CellTiter-Glo reagent was added to the assay plate and incubated for 10 min at room temperature to stabilize the luminescence signal. The IC50 value was calculated by recording the RLU (relative luminescence unit) using Enspire.

[2] = tested on: MDA-MB-453 (human breast cancer cell); assay: Cell proliferation assay, CellTiter Glo (Table 9); type: cell-based
Procedure: as §2

[3] = tested on: RT-112 (human bladder cancer cell); assay: Cell proliferation assay, CellTiter Glo (Table 9); type: cell-based
Procedure: as §2

[4] = tested on: NCI-H716 (human colorectal cancer cell); assay: Cell proliferation assay, CellTiter Glo (Table 9); type: cell-based
Procedure: as §2

[5] = tested on: NCI-H1581 (human non-small cell lung cancer cells); assay: Cell proliferation assay, CellTiter Glo (Table 9); type: cell-based
Procedure: as §2

[6] = tested on: DMS 114 (human lung cancer cell); assay: Cell proliferation assay, CellTiter Glo (Table 9); type: cell-based
Procedure: as §2

[7] = tested on: SNU-16 (human gastric cancer cell); assay: Cell proliferation assay, CellTiter Glo (Table 9); type: cell-based
Procedure: as §2

[8] = tested on: MFE-296 (human endometrial cancer cells); assay: Cell proliferation assay, CellTiter Glo (Table 9); type: cell-based; conditions: WIFE-296 [sic]
Procedure: as §2

[9] = tested on: JHH-7 (human hepatoma cell); assay: Cell proliferation assay, CellTiter Glo (Table 9); type: cell-based
Procedure: as §2

[10] = tested on: OPM-2 (human myeloma cell); assay: Cell proliferation assay, CellTiter Glo (Table 9); type: cell-based
Procedure: as §2

FGFR1 = FGFR1 (Homo sapiens (Human), UniProt P11362); assay: Kinase assay Method 1, mobility shift assay; conditions: read-out: IC50(nM) value of compounds FGFR1; mobility shift assay, ATP at Km; class symbols
Sequence of FGFR1 (P11362 22-822): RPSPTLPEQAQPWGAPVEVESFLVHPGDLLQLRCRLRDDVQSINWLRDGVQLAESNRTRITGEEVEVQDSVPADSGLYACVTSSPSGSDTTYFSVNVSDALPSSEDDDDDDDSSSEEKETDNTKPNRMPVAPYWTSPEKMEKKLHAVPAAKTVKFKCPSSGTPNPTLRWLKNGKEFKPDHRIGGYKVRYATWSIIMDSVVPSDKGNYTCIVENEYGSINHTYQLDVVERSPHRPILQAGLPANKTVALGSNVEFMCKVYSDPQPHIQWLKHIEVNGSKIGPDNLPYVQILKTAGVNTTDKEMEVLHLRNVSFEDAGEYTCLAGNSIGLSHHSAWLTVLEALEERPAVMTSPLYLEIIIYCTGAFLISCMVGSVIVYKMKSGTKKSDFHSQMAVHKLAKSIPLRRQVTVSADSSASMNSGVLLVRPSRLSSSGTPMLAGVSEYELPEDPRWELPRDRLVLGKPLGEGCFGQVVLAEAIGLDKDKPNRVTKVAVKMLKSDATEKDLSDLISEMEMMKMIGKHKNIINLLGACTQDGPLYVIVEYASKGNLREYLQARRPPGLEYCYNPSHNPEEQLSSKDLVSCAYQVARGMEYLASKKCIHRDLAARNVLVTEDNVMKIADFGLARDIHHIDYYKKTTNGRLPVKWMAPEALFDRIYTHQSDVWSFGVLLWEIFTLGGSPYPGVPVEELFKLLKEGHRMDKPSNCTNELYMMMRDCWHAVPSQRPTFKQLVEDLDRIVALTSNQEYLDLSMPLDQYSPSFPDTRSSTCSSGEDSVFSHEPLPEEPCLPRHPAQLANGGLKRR
Procedure: Method 1: The inhibitory activity of some compounds of the present disclosure against FGFR1, FGFR2, FGFR3, FGFR4, KDR was tested by mobility shift assay (concentration of ATP is Km value).
Preparing of compounds: dilute test compounds to specific concentration using 100% DMSO

FGFR4 = FGFR4 (Homo sapiens (Human), UniProt P22455); assay: Kinase assay Method 1, mobility shift assay; type: biochemical; conditions: ATP at Km, numeric values, read-out: IC50(nM) value of compounds FGFR4
Sequence of FGFR4 (P22455 22-802): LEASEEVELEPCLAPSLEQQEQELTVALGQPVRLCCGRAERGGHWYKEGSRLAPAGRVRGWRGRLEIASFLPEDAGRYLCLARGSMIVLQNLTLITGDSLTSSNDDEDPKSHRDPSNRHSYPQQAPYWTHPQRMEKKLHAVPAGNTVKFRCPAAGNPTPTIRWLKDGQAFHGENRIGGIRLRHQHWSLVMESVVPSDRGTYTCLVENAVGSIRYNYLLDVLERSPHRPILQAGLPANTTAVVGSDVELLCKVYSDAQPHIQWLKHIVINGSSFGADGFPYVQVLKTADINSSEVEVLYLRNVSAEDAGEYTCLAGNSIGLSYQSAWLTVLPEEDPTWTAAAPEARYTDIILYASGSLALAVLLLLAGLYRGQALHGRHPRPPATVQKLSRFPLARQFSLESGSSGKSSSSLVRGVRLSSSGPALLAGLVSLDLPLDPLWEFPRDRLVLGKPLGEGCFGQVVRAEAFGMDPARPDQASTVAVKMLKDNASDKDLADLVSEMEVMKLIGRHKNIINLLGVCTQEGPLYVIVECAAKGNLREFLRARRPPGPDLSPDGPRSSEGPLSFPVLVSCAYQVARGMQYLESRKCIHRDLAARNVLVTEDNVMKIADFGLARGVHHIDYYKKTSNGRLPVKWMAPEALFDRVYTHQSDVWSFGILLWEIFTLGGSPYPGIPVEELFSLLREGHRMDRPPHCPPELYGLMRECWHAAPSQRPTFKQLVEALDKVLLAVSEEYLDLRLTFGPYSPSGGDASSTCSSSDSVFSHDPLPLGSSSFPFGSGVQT

[11] = Homo sapiens, NCI-H1581, read-out: IC50(nM) value of compounds on NCI-H1581 cells
[12] = Homo sapiens, NCI-H1581, CellTiter 96 AQueous (144 hrs) or CellTiter Glo (96 hrs), class symbols, read-out: IC50(nM) value of compounds on NCI-H1581 cells

IC50 (SNU-16 cells; Homo sapiens, SNU-16, 96 hrs): 1 to 10 nM
SMILES: C=CC(=O)N1CCC2(CC1)CN(CCCc1nc3c(-c4c(Cl)c(OC)cc(OC)c4Cl)cc4cnc(NC)nc4n3n1)C2 [Compound 138, 1-(2-(3-(4-(2,6-dichloro-3,5-dimethoxyphenyl)-8-(methylamino)-[1,2,4]triazolo[1′,5′:1,6]pyrido[2,3-d]pyrimidin-2-yl)propyl)-2,7-diazaspiro[3.5]nonan-7-yl)prop-2-en-1-one]

SMILES: COc1cc(OC)c(Cl)c(-c2cc3cnc(Nc4ccc(N5CCN6CCOC[C@@H]6C5)cc4)nc3n3cnnc23)c1 [Compound 42, (S)-6-(2-chloro-3,5-dimethoxyphenyl)-N-(4-(hexahydropyrazino[2,1-c][1,4]oxazin-8(1H)-yl)phenyl)-[1,2,4]triazolo[4′,3′:1,6]pyrido[2,3-d]pyrimidin-2-amine]
IC50 (FGFR3): 1.6 nM
IC50 (FGFR2): 1.3 nM
IC50 (SNU-16 cells; Homo sapiens, SNU-16, 96 hrs): < 1 nM
IC50 (NCI-H1581 cells; [11]): 3.2 nM

IC50 [1]: 2.4 nM
IC50 ([2]; 96 hrs): 11 nM
IC50 ([3]; 96 hrs): 0.8 nM
IC50 ([4]; 96 hrs): 0.6 nM
IC50 ([5]; 96 hrs): 1.5 nM
IC50 ([6]; 96 hrs): 14.8 nM
IC50 ([7]; 96 hrs): 1.2 nM
IC50 (SNU-16 cells; 96 hrs): < 1 nM
IC50 ([8]; 96 hrs): 16.7 nM
IC50 (NCI-H1581 cells; CellTiter 96 AQueous (144 hrs) or CellTiter Glo (96 hrs), numeric values, read-out: IC50(nM) value of compounds on NCI-H1581 cells): 0.5 nM
IC50 ([9]; 96 hrs): 3.8 nM
IC50 ([10]; 96 hrs): 2.5 nM
SMILES: COc1cc(OC)cc(N(CCNC(C)C)c2ccc3ncc(-c4cnn(C)c4)nc3c2)c1 [JNJ42756493]

IC50 ([1]; Homo sapiens): 16.9 nM
IC50 ([2]; Homo sapiens, MDA-MB-453, 96 hrs): 544 nM
IC50 ([3]; Homo sapiens, RT-112, 96 hrs): 4.4 nM
IC50 ([4]; Homo sapiens, NCI-H716, 96 hrs): 4.6 nM
IC50 ([5]; Homo sapiens, NCI-H1581, 96 hrs): 18.2 nM
IC50 ([6]; Homo sapiens, DMS-114, 96 hrs): 33.6 nM
IC50 ([7]; Homo sapiens, SNU-16, 96 hrs): 9.5 nM
IC50 ([8]; Homo sapiens, MFE-296, 96 hrs): 51.4 nM
IC50 (NCI-H1581 cells; Homo sapiens, NCI-H1581, CellTiter 96 AQueous (144 hrs) or CellTiter Glo (96 hrs), numeric values, read-out: IC50(nM) value of compounds on NCI-H1581 cells): 3.4 nM
IC50 ([9]; Homo sapiens, JHH7, 96 hrs): 54.1 nM
IC50 ([10]; Homo sapiens, OPM-2, 96 hrs): 18 nM
SMILES: CCN1CCN(c2ccc(Nc3cc(N(C)C(=O)Nc4c(Cl)c(OC)cc(OC)c4Cl)ncn3)cc2)CC1 [BGJ398, Infigratinib]

IC50 (FGFR1): < 1 nM
IC50 (SNU-16 cells; Homo sapiens, SNU-16, 96 hrs): 1 to 10 nM
IC50 (NCI-H1581 cells; [12]): 1 to 10 nM
SMILES: Cc1nc2cc(Cl)c(-c3cc4cnc(Nc5ccc(N6CCN7CCC[C@@H]7C6)cc5)nc4n4cnnc34)cc2[nH]1 [Compound 84]

SMILES: COc1cc(OC)c(Cl)c(-c2cc3cnc(Nc4ccc(N5CCC(N6CCOCC6)CC5)cc4)nc3n3cnnc23)c1 [Compound 29, 6-(2-chloro-3,5-dimethoxyphenyl)-N-(4-(4-morpholinopiperidin-1-yl)phenyl)-[1,2,4]triazolo[4′,3′:1,6]pyrido[2,3-d]pyrimidin-2-amine]
IC50 (SNU-16 cells; Homo sapiens, SNU-16, 96 hrs): < 1 nM
IC50 (NCI-H1581 cells; [11]): 2 nM

SMILES: COc1cc(OC)c(Cl)c(-c2cc3cnc(Nc4ccc(N5C[C@@H](C)N[C@@H](C)C5)cc4)nc3n3cnnc23)c1 [Compound 50, 6-(2-chloro-3,5-dimethoxyphenyl)-N-(4-((3S,5R)-3,5-dimethylpiperazin-1-yl)phenyl)-[1,2,4]triazolo[4′,3′:1,6]pyrido[2,3-d]pyrimidin-2-amine]
IC50 (FGFR4): 35 nM
IC50 (SNU-16 cells; Homo sapiens, SNU-16, 96 hrs): < 1 nM
IC50 (NCI-H1581 cells; [11]): 0.2 nM

SMILES: COc1cc(OC)c(Cl)c(-c2cc3cnc(Nc4ccc(N5CCC(N6CCOCC6)CC5)cc4)nc3n3cnnc23)c1Cl [Compound 65, 6-(2,6-dichloro-3,5-dimethoxyphenyl)-N-(4-(4-morpholinopiperidin-1-yl)phenyl)-[1,2,4]triazolo[4′,3′:1,6]pyrido[2,3-d]pyrimidin-2-amine]
IC50 (FGFR4): 6.7 nM
IC50 (NCI-H1581 cells; [11]): 0.6 nM

SMILES: CCN1CCN(c2ccc(Nc3ncc4cc(-c5cc6[nH]c(C)nc6cc5Cl)c5nncn5c4n3)cc2)CC1 [Compound 67, 6-(5-chloro-2-methyl-1H-benzo[d]imidazol-6-yl)-N-(4-(4-ethylpiperazin-1-yl)phenyl)-[1,2,4]triazolo[4′,3′:1,6]pyrido[2,3-d]pyrimidin-2-amine]
IC50 (FGFR4): 90 nM
IC50 (NCI-H1581 cells; [11]): 1 to 10 nM

IC50 (SNU-16 cells; Homo sapiens, SNU-16, 96 hrs): 10 to 100 nM
IC50 (NCI-H1581 cells; [12]): 10 to 100 nM
SMILES: CNc1ncc2cc(-c3c(Cl)c(OC)cc(OC)c3Cl)c3nc(CCCN4CCN(C(=O)C(C#N)=CC(C)C)CC4)nn3c2n1 [Compound 147, 2-(4-(3-(4-(2,6-dichloro-3,5-dimethoxyphenyl)-8-(methylamino)-[1,2,4]triazolo[1′,5′:1,6]pyrido[2,3-d]pyrimidin-2-yl)propyl)piperazine-1-carbonyl)-4-methylpent-2-enenitrile]

SMILES: COc1cc(OC)c(Cl)c(-c2cc3cnc(Nc4ccc(N5CCN6CCC[C@@H]6C5)cc4)nc3n3cnnc23)c1Cl [Compound 64, (R)-6-(2,6-dichloro-3,5-dimethoxyphenyl)-N-(4-(hexahydropyrrolo[1,2-a]pyrazin-2(1H)-yl)phenyl)-[1,2,4]triazolo[4′,3′:1,6]pyrido[2,3-d]pyrimidin-2-amine]
IC50 (FGFR4): 14 nM
IC50 (FGFR3): 0.6 nM
IC50 (FGFR2): 2.7 nM
IC50 (SNU-16 cells; Homo sapiens, SNU-16, 96 hrs): < 1 nM
IC50 (NCI-H1581 cells; [11]): 0.5 nM

SMILES: CCN1CCC(c2ccc(Nc3ncc4cc(-c5cc(OC)cc(OC)c5Cl)c5nncn5c4n3)cc2)CC1 [Compound 102, 6-(2-chloro-3,5-dimethoxyphenyl)-N-(4-(1-ethylpiperidin-4-yl)phenyl)-[1,2,4]triazolo[4′,3′:1,6]pyrido[2,3-d]pyrimidin-2-amine]
IC50 (FGFR4): 60 nM
IC50 (NCI-H1581 cells; [11]): 0.7 nM

SMILES: C=CC(=O)N1CCN(Cc2nc3c(-c4c(Cl)c(OC)cc(OC)c4Cl)cc4cnc(NC)nc4n3n2)CC1 [Compound 123, 1-(4-(2-(4-(2,6-dichloro-3,5-dimethoxyphenyl)-8-(methylamino)-[1,2,4]triazolo[1′,5′:1,6]pyrido[2,3-d]pyrimidin-2-yl)methyl)piperazin-1-yl)prop-2-en-1-one]
IC50 (FGFR4): 730 nM
IC50 (NCI-H1581 cells; [11]): 5.8 nM

SMILES: COc1cc(OC)c(Cl)c(-c2cc3cnc(Nc4ccc(N5CCN6CCC[C@@H]6C5)cc4)nc3n3cnnc23)c1 [Compound 24, (R)-6-(2-chloro-3,5-dimethoxyphenyl)-N-(4-(hexahydropyrrolo[1,2-a]pyrazin-2(1H)-yl)phenyl)-[1,2,4]triazolo[4′,3′:1,6]pyrido[2,3-d]pyrimidin-2-amine]
IC50 (FGFR4): 26 nM
IC50 (FGFR3): 0.8 nM
IC50 (FGFR2): 1.8 nM
IC50 (SNU-16 cells; Homo sapiens, SNU-16, 96 hrs): < 1 nM
IC50 (NCI-H1581 cells; [11]): 1.2 nM

SMILES: COc1cc(OC)c(Cl)c(-c2cc3cnc(Nc4ccc(N5CCN6CCOC[C@H]6C5)cc4)nc3n3cnnc23)c1 [Compound 43, (R)-6-(2-chloro-3,5-dimethoxyphenyl)-N-(4-(hexahydropyrazino[2,1-c][1,4]oxazin-8(1H)-yl)phenyl)-[1,2,4]triazolo[4′,3′:1,6]pyrido[2,3-d]pyrimidin-2-amine]
IC50 (SNU-16 cells; Homo sapiens, SNU-16, 96 hrs): < 1 nM
IC50 (NCI-H1581 cells; [11]): 1 to 10 nM
